Laboratory results from patent US6197818A, “Drug for treating diabetic nephrosis” (Nanjing General Hospital of Nanjing Command, PLA, priority 1999, dated 2001).

How the values were obtained:
[1] = pharmacokinetic study of oral rhein, blood level; type: in vivo, human (volunteers)
Protocol: The blood level of rhein still kept at 200 to 500 ng/ml at 24th hour in volunteers.

[2] = tolerability of oral rhein in volunteers; type: in vivo, human volunteers
Protocol: Of the thirty-six volunteers given rhein at dose of 200 mg/day (100 mg, b.i.d) for 3 days, only 5 persons experience gastro-intestinal disorders. Diarrhea occurred twice or thrice a day in three of these persons, and four times in only one person.

[3] = tested on: SD rats; assay: acute toxicity, half lethal dose (LD50); type: in vivo; settings: natural product
[4] = acute toxicity, half lethal dose (LD50); type: in vivo; settings: rat, in vivo; SD rats
[5] = tested on: Diabetic animal model of rat; assay: Suppression of renal hypertrophy by rhein in experimental diabetic rats (streptozotocin); type: in vivo, SD rats; settings: for blood glucose level / Kidney Index (kidney weight/body weight ratio) / Kidney Volume / Kidney Weight: rhein-treated 2 mg/Kg/day; for Kidney Index (kidney weight/body weight ratio) / Kidney Volume / Kidney Weight: 12th week
Protocol: The concentration of rhein is 0.2 g/L.
Rats were made diabetic by an intra-abdominal injection of Streptozotocin (Sigma Chemical Co.; in 0.1 mmol/L citrate buffer, pH 4.5) in a dose of 25 mg/Kg/day for 5 days.
(§1) The observation was focused on the changes of kidney weight and volume in diabetic rats treated by rhein.

[6] = tested on: diabetic nephropathy; assay: Clinical trial of rhein on diabetic nephropathy; type: in vivo, human diabetic patients
Protocol: Twenty-five diabetic patients diagnosed according to the standard of WHO where enrolled in this study. The fast blood glucose levels were above 250 mg/100 ml in these patients. Diabetic nephropathy was confirmed morphologically by renal biopsy, or with measurement of urinary protein or albumin excretion in each patient.
A yellow powder supplied in capsula containing 25 mg rhein. The dosage of 100 mg per day (50 mg twice a day) rhein was given orally as therapy. All patients were followed at regular intervals for measurement of serum creatinine values and urinary protein or albumin excretion at least for 3 months.

[7] = solubility and stability of rhein; type: physicochemical
Text: It remains steady in room temperature for more than one year. The general formula of rhein or the salt thereof is shown as the following: [drawing 2]

[8] = tested on: Diabetic animal model of rat; assay: Suppression of renal hypertrophy by sodium rheinate in experimental diabetic rats (streptozotocin); type: in vivo, SD rats; settings: for blood glucose level / Kidney Index (kidney weight/body weight ratio) / Kidney Weight: treated 1 mg/Kg/day Rhein-Na; for Kidney Index (kidney weight/body weight ratio) / Kidney Weight: 12th week
Protocol: Drug: aqueous solution of sodium rheinate at concentration of 0.1 g/L for oral
Diabetic animal model of rat: Adult female SD rats (Experimental Animal Center, Jinling Hospital, Nanjing) with body weights of 200 to 250 grams were used. Rats were made diabetic by an intra-abdominal injection of Streptozotocin (Sigma Chemical Co.; in 0.1 mmol/L citrate buffer, pH 4.5) in a dose of 25 mg/Kg/day for 5 days. Only rats with blood glucose level within the range of 13 to 25 mmol/L were recognized as the establishment of the diabetic mode.
as §1
The experiment was designed as the following:
Normal rats Diabetic rats
Control treated Control treated
Dosage of Rhein-Na, 0 1 0 1
Distilled water, ml/Kg/day 5 5 5 5

[9] = tested on: kidney damage caused by diabetes; settings: cited from earlier work
[10] = of thirty-six volunteers, 200 mg/day (100 mg, b.i.d) for 3 days
[11] = diabetic rats, 1 week after diabetic
[12] = diabetic rats, 4 weeks after diabetic
[13] = diabetic rats, pre-diabetic (baseline)
[14] = experimental diabetic rats, oral
[15] = Treatment after 3 months, 100 mg per day
[16] = of twenty-five, 100 mg per day, three months
[17] = patients treated with rhein, 100 mg per day

For `O=C(O)c1cc(O)c2c(c1)C(=O)c1cccc(O)c1C2=O` [rhein], the concentration at 24 h ([1]; human, blood, po, 24th hour, volunteers, single dose of 200 mg) was 200 to 500 ng/mL, the “time to peak blood level” value ([1]; one single dose of 200 mg, health man) was “one and half hours to three” and the “absorption from gastro-intestinal trace” value ([1]; oral) was “easily absorbed”. For the same compound, the “maintenance of blood concentration” value ([1]; oral) was “maintains for a longer period”, the “persons experiencing gastro-intestinal disorders” value [2, 10] was 5 persons and the “persons with diarrhea four times a day” value [2, 10] was “one”. The “persons with diarrhea twice or thrice a day” value [2, 10] was “three”, the “gastro-intestinal reactions (in words)” value ([2]; oral route, volunteers) was “not marked gastro-intestinal reactions” and the “toxicity (in words)” value [3] was “low toxicity and safe for therapy”. For the same compound, the LD50 [4] was 3200 mg/kg, the “kidney index (in words)” value ([5]; diabetic rats) was “decrease the kidney index (kidney weight/body weight ratio) obviously” and the “renal hypertrophy (in words)” value ([5]; diabetic rats) was “able to control or suppress renal hypertrophy”. For the same compound, the blood glucose level [5, 11] was 20.32 mmol/L, the blood glucose level [5, 12] was 19.77 mmol/L and the blood glucose level ([5]; diabetic rats, 8 weeks after diabetic) was 21.00 mmol/L. For the same compound, the “Kidney Index (kidney weight/body weight ratio)” value ([5]; diabetic rats) was 4.76 ×10^-3, the “Kidney Volume” value ([5]; diabetic rats) was 0.834 mL and the “Kidney Weight” value ([5]; diabetic rats) was 0.93 grams. The blood glucose level ([5]; diabetic rats, 12 weeks after diabetic) was 19.32 mmol/L, the blood glucose level [5, 13] was 6.23 mmol/L and the “hyperglycemia (in words)” value [5, 14] was “controlled or reduced effectively”. It also gave a blood glucose level ([5]; normal rats, 1 week) of 5.92 mmol/L, a blood glucose level ([5]; normal rats, 4 weeks) of 5.66 mmol/L and a blood glucose level ([5]; normal rats, 8 weeks) of 6.07 mmol/L. For the same compound, the “Kidney Index (kidney weight/body weight ratio)” value ([5]; normal rats) was 4.04 ×10^-3, the “Kidney Volume” value ([5]; normal rats) was 0.804 mL and the “Kidney Weight” value ([5]; normal rats) was 0.72 grams. The blood glucose level ([5]; normal rats, 12 weeks) was 6.22 mmol/L, the blood glucose level ([5]; normal rats, pre-diabetic) was 6.12 mmol/L and the “gastro-intestinal reactions as vomiting, diarrhea et al.” value ([6]; 100 mg per day) was “None”. For the same compound, the “share of patients with obvious decrement of urinary protein excretion” value ([6]; 18 of twenty-five, 100 mg per day, three months) was 72%, the “Change of urinary protein excretion: Decrease of 25%” value [6, 15] was 5 No and the “Change of urinary protein excretion: Decrease of 50%” value [6, 15] was 9 No. For the same compound, the “Change of urinary protein excretion: Decrease of 75%” value [6, 15] was 4 No, the “Change of urinary protein excretion: No change” value [6, 15] was 7 No and the “tolerability (in words)” value ([6]; all patients, 100 mg per day) was “tolerated”. For the same compound, the “urinary albumin excretion (in words)” value ([6]; diabetic nephropathy patients) was “ameliorate the urinary albumin excretion significantly”, the “urinary protein excretion (in words)” value ([6]; diabetic patients) was “could decrease the urinary protein excretion” and the “patients with no change or increase of urinary protein excretion” value [6, 16] was “seven”. The “patients with obvious decrement of urinary protein excretion” value [6, 16] was 18 patients, the Blood routine test [6, 17] was “normal” and the “liver function and renal function” value [6, 17] was “no liver function abnormally and deterioration of renal function”. For the same compound, the “solubility in organic solvent” value ([7]; organic solvent) was “soluble in organic solvent”, the “stability (remains steady)” value ([7]; room temperature) was “more than one” and the solubility in water ([7]; water) was “soluble slightly in water”.
For `O=C(O)c1cc(O)c2c(c1)C(=O)c1cccc(O)c1C2=O` [sodium rheinate], the blood glucose level [8, 11] was 21.82 mmol/L, the blood glucose level [8, 12] was 19.97 mmol/L and the “Kidney Index (kidney weight/body weight ratio)” value ([8]; diabetic rats) was 5.68 ×10^-3. For the same compound, the “Kidney Weight” value ([8]; diabetic rats) was 0.71 grams, the blood glucose level [8, 13] was 6.17 mmol/L and the “hyperglycemia (in words)” value [8, 14] was “controlled or reduced effectively”. For the same compound, the blood glucose level ([8]; normal rats, 1 week) was 6.52 mmol/L, the blood glucose level ([8]; normal rats, 4 weeks) was 6.48 mmol/L and the “Kidney Index (kidney weight/body weight ratio)” value ([8]; normal rats) was 4.34 ×10^-3. The “Kidney Weight” value ([8]; normal rats) was 0.59 grams and the blood glucose level ([8]; normal rats, pre-diabetic) was 6.06 mmol/L.
For “insulin: the main medicament for its treatment is insulin at present”, the “effect on urinary glucose” value [9] is listed as “can decrease the urinary glucose” and the “effect on kidney damage caused by diabetes” value ([9]; such as renal hypertrophy) is listed as “no therapeutic effect”.
